How the values were obtained:
[1] = system: Mus musculus; assay: Number of mice (out of 4) cured from Trypanosoma brucei rhodesiense infection which are parasite free for 60 days was determined at i.p. dose of 20 mg/kg; format: functional; conditions: route intraperitoneal
[2] = system: Mus musculus; assay: In vivo average survival days of mice infected by Trypanosoma brucei rhodesiense was determined for a period of 60 days at i.p. dose of 20 mg/kg; format: functional; conditions: route intraperitoneal
[3] = system: Plasmodium falciparum; assay: In vitro inhibitory activity for Plasmodium falciparum; format: functional, organism-based
[4] = system: Nucleic Acid; assay: In vitro binding affinity towards Poly (dA-dT)2; format: nucleic-acid assay
[5] = system: Trypanosoma brucei rhodesiense; assay: In vitro inhibitory activity against Trypanosoma brucei rhodesiense; format: functional, organism-based
[6] = system: Mus musculus; assay: Number of mice (out of 4) cured from Trypanosoma brucei rhodesiense infection which are parasite free for 60 days was determined at p.o. dose of 75 mg/kg; format: functional; conditions: route oral
[7] = system: Mus musculus; assay: In vivo average survival days of mice infected by Trypanosoma brucei rhodesiense was determined for a period of 60 days at p.o. dose of 75 mg/kg; format: functional; conditions: route oral
[8] = system: Mus musculus; assay: In vivo average survival days of mice infected by Trypanosoma brucei rhodesiense was determined for a period of 60 days at i.p. dose of 5 mg/kg; format: functional; conditions: route intraperitoneal
[9] = system: Mus musculus; assay: Number of mice (out of 4) cured from Trypanosoma brucei rhodesiense infection which are parasite free for 60 days was determined at i.p. dose of 5 mg/kg; format: functional; conditions: route intraperitoneal
[10] = system: Mus musculus; assay: Number of mice (out of 4) cured from Trypanosoma brucei rhodesiense infection which are parasite free for 60 days was determined at p.o. dose of 100 mg/kg; format: functional; conditions: route oral
[11] = system: Mus musculus; assay: In vivo average survival days of mice infected by Trypanosoma brucei rhodesiense was determined for a period of 60 days at p.o. dose of 100 mg/kg; format: functional; conditions: route oral
[12] = system: Mus musculus; assay: Number of mice (out of 4) cured from Trypanosoma brucei rhodesiense infection which are parasite free for 60 days was determined at p.o. dose of 50 mg/kg; format: functional; conditions: route oral
[13] = system: Mus musculus; assay: In vivo average survival days of mice infected by Trypanosoma brucei rhodesiense was determined for a period of 60 days at p.o. dose of 50 mg/kg; format: functional; conditions: route oral
[14] = system: Mus musculus; assay: Number of mice (out of 4) cured from Trypanosoma brucei rhodesiense infection which are parasite free for 60 days was determined at i.p. dose of 10 mg/kg; format: functional; conditions: route intraperitoneal
[15] = system: Mus musculus; assay: In vivo average survival days of mice infected by Trypanosoma brucei rhodesiense was determined for a period of 60 days at i.p. dose of 10 mg/kg; format: functional; conditions: route intraperitoneal

Row | SMILES | No. of cures [1] | Survival [2] [days] | IC50 [3] [µM] | ΔTm [4] | IC50 [5] [µM] | other results
1 | N=C(N)c1ccc(-c2cccc(-c3cn4cc(C(=N)N)ccc4n3)c2)cc1 | 4 | >60 | 0.107 | > 27 | 0.022 | –
2 | N=C(N)c1ccc(OCCCCCOc2ccc(C(=N)N)cc2)cc1 [PENTAMIDINE] | 0 | – | – | – | – | –
3 | N=C(N)c1ccc(-c2ccc(-c3cn4cc(C(=N)N)ccc4n3)o2)cc1 | 4 | >60 | 0.014 | 26.2 | 0.063 | –
4 | Cc1cc(C(=N)N)cn2cc(-c3ccc(-c4ccc(C(=N)N)cc4)o3)nc12 | 4 | >60 | 0.088 | > 27 | 0.006 | –
5 | N=C(N)c1ccc(-c2ccc(-c3ccc(C(=N)N)cc3)o2)cc1 [FURAMIDINE] | 0 | – | – | – | – | –
6 | N=C(NO)c1ccc(-c2ccc(-c3cn4cc(/C(N)=N/O)ccc4n3)cc2)cc1 | – | – | 0.521 | – | – | No. of cures [6]: 0; Survival [7]: 28 days
7 | N=C(N)c1ccc(-c2ccc(-c3cn4c(n3)CCC(C(=N)N)C4)o2)cc1 (stereo not drawn) | 4 | >60 | 1.2 | 15.6 | 0.052 | Survival [8]: >51 days; No. of cures [9]: 2
8 | Cc1cc(C(=N)N)cn2cc(-c3cccc(-c4ccc(C(=N)N)cc4)c3)nc12 | 3 | >50 | 0.086 | > 27 | 0.049 | –
9 | CONC(=N)c1ccc(-c2ccc(-c3cn4cc(C(=N)NOC)ccc4n3)cc2)cc1 | – | – | 0.395 | 0.3 | 5.3 | No. of cures [6]: 0; Survival [7]: 20 days
10 | CONC(=N)c1ccc(-c2ccc(-c3cn4cc(C(=N)NOC)ccc4n3)o2)cc1 | – | – | 2.8 | – | 3 | No. of cures [10]: 2; Survival [11]: >39.5 days
11 | N=C(N)c1ccc(-c2ccc(-c3cn4cc(C(=N)N)ccc4n3)cc2)cc1 | 4 | >60 | 0.043 | 24.2 | 0.001 | –
12 | N=C(NO)c1ccc(-c2ccc(-c3cn4cc(/C(N)=N/O)ccc4n3)o2)cc1 | – | – | 1.6 | – | 2.2 | No. of cures [12]: 1; Survival [13]: >19.5 days
13 | N=C(N)c1ccc(-c2ccc(-c3cn4c(n3)CCC(C(=N)N)C4)cc2)cc1 (stereo not drawn) | – | – | 0.014 | 21.3 | 0.116 | No. of cures [14]: 3; Survival [15]: >51.5 days
14 | N=C(N)c1ccc(-c2cccc(-c3cn4c(n3)CCC(C(=N)N)C4)c2)cc1 (stereo not drawn) | – | – | 0.086 | 19.1 | 0.226 | –
15 | CONC(=N)c1ccc(-c2ccc(-c3ccc(C(=N)NOC)cc3)o2)cc1 [PAFURAMIDINE] | – | – | 0.0155 | 25 | 0.0045 | No. of cures [10]: 4; Survival [11]: >60 days

Reference: ChEMBL document CHEMBL1148357, “Novel dicationic imidazo[1,2-a]pyridines and 5,6,7,8-tetrahydro-imidazo[1,2-a]pyridines as antiprotozoal agents” (J Med Chem, 2004)
